Experiments:
Format in all cases: in vivo
[1] = test system: giant foxtail (Setaria faberii); test: Test A postemergence
From the text: (§1) Seeds of plant species selected from barnyardgrass (Echinochloa crus-galli), Kochia (Kochia scoparia), ragweed (common ragweed, Ambrosia elatior), ryegrass, Italian (Italian ryegrass, Lolium multiflorum), crabgrass, large (Digitaria sanguinalis), giant foxtail (Setaria faberii), green foxtail (Setaria viridis), morningglory (Ipomoea spp.), pigweed (Amaranthus retroflexus), velvetleaf (Abutilon theophrasti), wheat (Triticum aestivum), and corn (Zea mays) were planted into a blend of loam soil and sand and treated preemergence with a directed soil spray using test chemicals formulated in anon-phytotoxic solvent mixture which included a surfactant.
(§2) At the same time, plants selected from these crop and weed species and also blackgrass (Alopecurus myosuroides), and Galium (catchweed bedstraw, Galium aparine) were planted in pots containing the same blend of loam soil and sand and treated with postemergence applications of test chemicals formulated in the same manner. Plants ranged in height from 2 to 10 cm and were in the one- to two-leaf stage for the postemergence treatment. Treated plants and untreated controls were maintained in a greenhouse for approximately 10 d, after which time all treated plants were compared to untreated controls and visually evaluated for injury. Plant response ratings, summarized in Table A, are based on a 0 to 100 scale where 0 is no effect and 100 is complete control. A dash (-) response means no test result.

[2] = test system: ryegrass, Italian (Italian ryegrass, Lolium multiflorum); test: Test A postemergence
From the text: as §1, §2

[3] = test system: Galium (catchweed bedstraw, Galium aparine); test: Test A postemergence
From the text: as §1, §2

[4] = test system: barnyardgrass (Echinochloa crus-galli); test: Test A postemergence
From the text: as §1, §2

Kochia (Kochia scoparia) [5] = test: Test A postemergence
From the text: as §1, §2

[6] = test system: wheat (Triticum aestivum); test: Test A postemergence
From the text: as §1, §2

[7] = test system: pigweed (Amaranthus retroflexus); test: Test A postemergence
From the text: as §1, §2

[8] = test system: blackgrass (Alopecurus myosuroides); test: Test A postemergence
From the text: as §1, §2

[9] = test system: ragweed (common ragweed, Ambrosia elatior); test: Test A postemergence
From the text: as §1, §2

corn (Zea mays) = test: Test A postemergence
From the text: as §1, §2

[10] = test system: giant foxtail (Setaria faberii); test: Test A preemergence; settings: Preemergence; for Plant response rating, Foxtail, Giant: 125 g ai/ha, visual injury after approximately 10 d, 0 to 100 scale where 0 is no effect and 100 is complete control; for Foxtail, Giant plant response rating (0 to 100 scale, 0 is no effect, 100 is complete control): 500 g ai/ha, visual injury approx. 10 d
From the text: as §1, §2

[11] = test system: ryegrass, Italian (Italian ryegrass, Lolium multiflorum); test: Test A preemergence; settings: Preemergence; for Plant response rating, Ryegrass, Italian: 125 g ai/ha, visual injury after approximately 10 d, 0 to 100 scale where 0 is no effect and 100 is complete control; for Ryegrass, Italian plant response rating (0 to 100 scale, 0 is no effect, 100 is complete control): 500 g ai/ha, visual injury approx. 10 d
From the text: as §1, §2

[12] = test system: barnyardgrass (Echinochloa crus-galli); test: Test A preemergence; settings: Preemergence; for Plant response rating, Barnyardgrass: 125 g ai/ha, visual injury after approximately 10 d, 0 to 100 scale where 0 is no effect and 100 is complete control; for Barnyardgrass plant response rating (0 to 100 scale, 0 is no effect, 100 is complete control): 500 g ai/ha, visual injury approx. 10 d
From the text: as §1, §2

Kochia (Kochia scoparia) [13] = test: Test A preemergence; settings: Preemergence; for Plant response rating, Kochia: 125 g ai/ha, visual injury after approximately 10 d, 0 to 100 scale where 0 is no effect and 100 is complete control; for Kochia plant response rating (0 to 100 scale, 0 is no effect, 100 is complete control): 500 g ai/ha, visual injury approx. 10 d
From the text: as §1, §2

[14] = test system: pigweed (Amaranthus retroflexus); test: Test A preemergence; settings: Preemergence; for Plant response rating, Pigweed: 125 g ai/ha, visual injury after approximately 10 d, 0 to 100 scale where 0 is no effect and 100 is complete control; for Pigweed plant response rating (0 to 100 scale, 0 is no effect, 100 is complete control): 500 g ai/ha, visual injury approx. 10 d
From the text: as §1, §2

[15] = test system: ragweed (common ragweed, Ambrosia elatior); test: Test A preemergence; settings: Preemergence; for Plant response rating, Ragweed: 125 g ai/ha, visual injury after approximately 10 d, 0 to 100 scale where 0 is no effect and 100 is complete control; for Ragweed plant response rating (0 to 100 scale, 0 is no effect, 100 is complete control): 500 g ai/ha, visual injury approx. 10 d
From the text: as §1, §2

[16] = 125 g ai/ha, postemergence, visual rating after approx. 10 d, 0 to 100 scale (0 no effect, 100 complete control)
[17] = Postemergence, 500 g ai/ha, 0 to 100 scale where 0 is no effect and 100 is complete control

Compound | Plant response rating, Foxtail, Giant [1, 16] | Plant response rating, Foxtail, Giant [1, 17] | Plant response rating, Ryegrass, Italian [2, 16] | Plant response rating, Ryegrass, Italian [2, 17] | Plant response rating, Galium [3, 16] | Plant response rating, Galium [3, 17] | Plant response rating, Barnyardgrass [4, 16] | Plant response rating, Barnyardgrass [4, 17] | Plant response rating, Kochia (Kochia (Kochia scoparia) [5]; [16]) | Plant response rating, Kochia (Kochia (Kochia scoparia) [5]; [17]) | Plant response rating, Wheat [6, 16] | Plant response rating, Wheat [6, 17] | Plant response rating, Pigweed [7, 16] | Plant response rating, Pigweed [7, 17] | Plant response rating, Blackgrass [8, 16] | Plant response rating, Blackgrass [8, 17] | Plant response rating, Ragweed [9, 16] | Plant response rating, Ragweed [9, 17] | Plant response rating, Corn (corn (Zea mays); [16]) | Plant response rating, Corn (corn (Zea mays); [17]) | also measured
CN1CC(c2cccc(C(F)(F)F)c2)C(C(=O)Nc2ccccc2[N+](=O)[O-])C1=O (stereo not shown) [Compound 572] | 90 | 90 | 30 | 60 | 50 | 60 | 90 | 90 | 20 | 60 | 60 | 70 | 30 | 40 | 70 | 80 | 0 | 20 | 60 | 80 | Plant response rating, Foxtail, Giant [10]: 90; Foxtail, Giant plant response rating (0 to 100 scale, 0 is no effect, 100 is complete control) [10]: 90; Plant response rating, Ryegrass, Italian [11]: 50; Ryegrass, Italian plant response rating (0 to 100 scale, 0 is no effect, 100 is complete control) [11]: 50; Plant response rating, Barnyardgrass [12]: 90; Barnyardgrass plant response rating (0 to 100 scale, 0 is no effect, 100 is complete control) [12]: 90; Plant response rating, Kochia (Kochia (Kochia scoparia) [13]): 70; Kochia plant response rating (0 to 100 scale, 0 is no effect, 100 is complete control) (Kochia (Kochia scoparia) [13]): 80; Plant response rating, Pigweed [14]: 40; Pigweed plant response rating (0 to 100 scale, 0 is no effect, 100 is complete control) [14]: 80; Plant response rating, Ragweed [15]: 0; Ragweed plant response rating (0 to 100 scale, 0 is no effect, 100 is complete control) [15]: 50
CN1CC(c2cccc(C(F)(F)F)c2)C(C(=O)Nc2ccccc2)C1=O (stereo not shown) [Compound 577] | 90 | 90 | 30 | 30 | 30 | 50 | 90 | 100 | 0 | 40 | 40 | 70 | 0 | 0 | 70 | 80 | 0 | 30 | 60 | 80 | Plant response rating, Foxtail, Giant [10]: 90; Foxtail, Giant plant response rating (0 to 100 scale, 0 is no effect, 100 is complete control) [10]: 100; Plant response rating, Ryegrass, Italian [11]: 40; Ryegrass, Italian plant response rating (0 to 100 scale, 0 is no effect, 100 is complete control) [11]: 80; Plant response rating, Barnyardgrass [12]: 90; Barnyardgrass plant response rating (0 to 100 scale, 0 is no effect, 100 is complete control) [12]: 100; Plant response rating, Kochia (Kochia (Kochia scoparia) [13]): 50; Kochia plant response rating (0 to 100 scale, 0 is no effect, 100 is complete control) (Kochia (Kochia scoparia) [13]): 70; Plant response rating, Pigweed [14]: 0; Pigweed plant response rating (0 to 100 scale, 0 is no effect, 100 is complete control) [14]: 40; Plant response rating, Ragweed [15]: 0; Ragweed plant response rating (0 to 100 scale, 0 is no effect, 100 is complete control) [15]: 40

Reference: patent publication US12077503B2, “Substituted cyclic amides and their use as herbicides” (FMC CORPORATION, priority 2015, dated 2024)
